In US12606508B2, “Cannabis extracts and uses thereof” (priority 2020, dated 2026):
pKi: −log10 of the molar value.

How the values were obtained:
CD-1 mice = test: Formalin test in mice; format: in vivo; conditions: AM251 0.5 mg/kg i.p. or AM630 1 mg/kg i.p., 10 min before Δ^9-THCB 3 mg/kg i.p.
Protocol: Formalin test in mice. Male CD-1 mice 6-8 weeks (Envigo, Italy), were housed under controlled conditions (12 h light/12 h dark cycle; temperature 20-22 C; humidity 55-60%) with chow and tap water available ad libitum. All surgeries and experimental procedures were approved by the Animal Ethics Committee of University of Campania “L. Vanvitelli” (Naples). Animal care was in compliance with Italian (D.L. 116/92) and European Commission (O.J. of E.C. L358/1 18/12/86) regulations on the protection of laboratory animals. All efforts were made to minimize animal suffering and to reduce the number of animals used. All the experiments were performed in a randomized manner by the same operator blind to pharmacological treatments. Mice weighing 28-32 g were used after 1 week-acclimation period and received formalin (1.25% in saline, 30 μL) in the dorsal surface of one side of the hind-paw. Each mouse, randomly assigned to one of the experimental groups (n=5), was placed in a plexiglass cage and allowed to move freely for 15-20 min. A mirror was placed at a 45° angle under the cage to allow full view of the hind-paws. Lifting, favoring, licking, shaking and flinching of the injected paw were recorded as nocifensive behavior.^61 The total time of the nociceptive response was measured every 5 min for 60 minutes and expressed in min (mean±SEM). Mice received vehicle (0.5% DMSO in saline) or different doses of Δ^9-THCB (2, 3 and 5 mg/kg, i.p.) 20 min before formalin injection alone or in combination with AM251 (0.5 mg/kg, i.p.) or AM630 (1 mg/kg, i.p.). The antagonists were administered 10 min before drugs injection.
Statistics for in vivo experiments. Data are represented as means±standard error of the mean (S.E.M). Statistical analysis of the data was performed by analysis of variance two-way ANOVA followed by Bonferroni post hoc or Dunnett's multiple comparison test. All statistical analyses were performed by using GraphPAD software (San Diego, California). Differences were considered significant at p<0.05.

human CB2 receptor = molecular target: T1, human CB2 receptor (Homo sapiens, UniProt P34972); conditions: cited from earlier work
T1 construct: Eurofins Discovery (contract assay)
T1 sequence (P34972 whole entry): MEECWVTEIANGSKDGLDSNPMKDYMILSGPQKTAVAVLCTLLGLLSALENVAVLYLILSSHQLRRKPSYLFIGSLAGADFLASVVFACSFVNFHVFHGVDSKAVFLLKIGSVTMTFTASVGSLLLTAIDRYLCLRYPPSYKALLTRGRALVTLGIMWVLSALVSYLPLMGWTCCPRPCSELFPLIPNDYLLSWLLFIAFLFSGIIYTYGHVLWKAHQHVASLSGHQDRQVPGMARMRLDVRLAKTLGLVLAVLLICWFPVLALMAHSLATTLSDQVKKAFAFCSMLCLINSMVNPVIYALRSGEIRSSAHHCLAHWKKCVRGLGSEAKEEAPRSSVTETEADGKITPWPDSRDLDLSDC

human CB1 receptor = molecular target: T2, human CB1 receptor (Homo sapiens, UniProt P21554); conditions: literature values used for comparison; read-out: Ki against CB1 receptor reported in the literature; cited from earlier work
T2 construct: Eurofins Discovery (contract assay)
T2 sequence (P21554 whole entry): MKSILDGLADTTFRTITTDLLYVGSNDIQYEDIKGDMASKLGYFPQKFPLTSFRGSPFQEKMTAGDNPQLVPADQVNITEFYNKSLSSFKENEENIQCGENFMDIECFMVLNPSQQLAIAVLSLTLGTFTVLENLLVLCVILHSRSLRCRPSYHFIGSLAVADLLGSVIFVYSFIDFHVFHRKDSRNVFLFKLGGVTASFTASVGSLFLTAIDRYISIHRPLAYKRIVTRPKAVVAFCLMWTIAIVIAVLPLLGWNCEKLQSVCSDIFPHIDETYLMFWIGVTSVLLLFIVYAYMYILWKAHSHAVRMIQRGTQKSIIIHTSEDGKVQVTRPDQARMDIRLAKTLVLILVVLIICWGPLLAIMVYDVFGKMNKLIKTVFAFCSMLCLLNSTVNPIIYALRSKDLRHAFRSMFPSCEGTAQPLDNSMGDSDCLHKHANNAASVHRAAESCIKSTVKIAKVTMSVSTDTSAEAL

SMILES	effect of antagonist pre-treatment on Δ^9-THCB analgesia in formalin test (CD-1 mice)	pKi (human CB1 receptor)	also measured
COc1ccc(C(=O)c2c(C)n(CCN3CCOCC3)c3cc(I)ccc23)cc1 [AM630]	prevented the analgesic effects induced by Δ^9-THCB	–	–
C=C(C)[C@@H]1CCC(C)=C[C@H]1c1c(O)cc(CCCCC)cc1O [CBD, cannabidiol]	–	–	affinity to CB2 receptor (in words, literature) (human CB2 receptor): poor affinity
CCCc1cc(O)c2c(c1)OC(C)(C)[C@@H]1CCC(C)=C[C@@H]21 [Δ^9-THCV, Δ^9-tetrahydrocannabivarin]	–	7.12	–
Cc1c(C(=O)NN2CCCCC2)nn(-c2ccc(Cl)cc2Cl)c1-c1ccc(I)cc1 [AM251]	prevented the analgesic effects induced by Δ^9-THCB	–	–
CC1=CC[C@@H]2[C@@H](C1)c1c(O)cc(C(C)(C)CCCCCCBr)cc1OC2(C)C [AM11542]	–	9.96	–
